Assays:
hDAT = hDAT (Homo sapiens (Human), UniProt Q01959); assay: DAT radioligand binding assay ([125I]RTI-55, HEK-293 membranes); conditions: for IC50: (+)-enantiomers, read-out: DAT IC50
Experimental: (§1) Recombinant HEK-293 cells expressing either the hSERT, hDAT, or hNET proteins were harvested from T-175 flasks as follows. The medium was removed from the flasks and the cells rinsed with HBSS without Ca and without Mg. The cells were then incubated for 5-10 minutes in 10 mM Tris-Cl, pH 7.5, 5 mM EDTA before the cells were lifted with a combination of pipetting and scraping, as needed. The cell suspension was collected into centrifuge bottles and homogenized for 30 seconds with a Polytron homogenizer. The suspension was centrifuged for 30 minutes at 32,000×g, 4° C. The supernatant was decanted and the pellet resuspended and homogenized in 50 mM Tris-Cl, pH 7.5, 1 mM EDTA for 10 seconds. The suspension was then centrifuged again for 30 minutes at 32,000×g, 4° C. The supernatant was decanted and the pellet resuspended in 50 mM Tris-Cl, pH 7.5, 1 mM EDTA and briefly homogenized. A Bradford assay (Bio-rad) was performed and the membrane preparation diluted to 2 mg/ml with 50 mM Tris-Cl, pH 7.5, 1 mM EDTA. Aliquots were prepared, and then frozen and stored at −80° C.
Compounds were dissolved in 100% DMSO at a concentration 100 times the desired highest assay concentration, serially diluted 1:3 in 100% DMSO, and 0.4 μl/well of each solution was dispensed to a Nunc polypropylene, round bottom, 384-well plate. 100% inhibition is defined with 0.4 μl/well of 1 mM GBR-12935 dissolved in DMSO. 20 ul/well of a 2× membrane preparation (12.5 μg/ml in 30 mM sodium phosphate buffer, pH 7.9 at 4° C.) and 20 μl/well of a 2× radioligand solution ([…] [^125I]RTI-55 in 30 mM sodium phosphate buffer, pH 7.9 at 4° C.) were added to the well and the reaction incubated for 1 hour at room temperature. The contents of the assay plate were then transferred to a Millipore MultiscreenHTS GF/B filter plate which was pretreated with 0.5% PEI for at least one hour. The plate was vacuum-filtered and washed with 7 washes of 100 μl/well 50 mM Tris-Cl, pH 7.5, 120 mM NaCl, 5 mM KCl chilled to 4° C. The filtration and washing were completed in less than 90 seconds. The plates were air-dried overnight, 12 μl/well of MicroScint scintillation fluid added, and the plates counted in a Trilux.
(§2) The raw data was normalized to percent inhibition using control wells defining 0% (DMSO only) and 100% (selective inhibitor) inhibition which were run on each plate. Each plate was run in triplicate, and the concentration response curve thus generated was fit using the four-parameter dose response equation, Y=Bottom+(Top-Bottom)/(1+10^((LogIC50−X)*HillSlope)) in order to determine the IC50 value for each compound. The radioligand concentration chosen for each assay corresponds to the Kd concentration determined through saturation binding analysis for each assay.

hNET = hNET (Homo sapiens (Human), UniProt P23975); assay: NET radioligand binding assay ([3H]nisoxetine, HEK-293 membranes); conditions: for IC50: (+)-enantiomers
Experimental: as §1
(§3) Compounds were dissolved in 100% DMSO at a concentration 100 times the desired highest assay concentration, serially diluted 1:3 in 100% DMSO, and 1.0 μl/well of each solution was dispensed to a Nunc polypropylene, round bottom, 384-well plate. 100% inhibition is defined with 1.0 μl/well of 10 mM desipramine dissolved in DMSO. 50 μl/well of a 2× membrane preparation (0.4 mg/ml in 50 mM Tris-Cl, pH 7.5, 120 mM NaCl, 5 mM KCl) and 50 μl/well of a 2× radioligand solution (4 nM [^3H]nisoxetine in 50 mM Tris-Cl, pH 7.5, 120 mM NaCl, 5 mM KCl) were added to the well and the reaction incubated for 1 hour at room temperature. The contents of the assay plate were then transferred to a Millipore MultiscreenHTS GF/B filter plate which was pretreated with 0.5% PEI for at least one hour. The plate was vacuum filtered and washed with 7 washes of 100 μl/well 50 mM Tris-Cl, pH 7.5, 120 mM NaCl, 5 mM KCl chilled to 4° C. The filtration and washing were completed in less than 90 seconds. The plates were air-dried overnight, 12 μl/well of MicroScint scintillation fluid added, and the plates counted in a Trilux.
as §2

hSERT = hSERT (Homo sapiens (Human), UniProt P31645); assay: SERT radioligand binding assay ([125I]RTI-55, HEK-293 membranes); conditions: for IC50: (+)-enantiomers, read-out: SERT IC50
Experimental: as §1, with “The” for “Recombinant HEK-293 cells expressing either the hSERT, hDAT, or hNET proteins were harvested from T-175 flasks as follows. The”
as §3, with “0.4” for “1.0”, “100% inhibition is defined with 1.0 μl/well of 10 mM desipramine dissolved in DMSO. 50 μl/well of a 2× membrane preparation (0.4 mg/ml in 50 mM Tris-Cl, pH 7.5, 120 mM NaCl, 5 mM KCl) and 50 μl/well of a 2× radioligand solution (4 nM [^3H]nisoxetine in 50 mM Tris-Cl, pH 7.5, 120 mM NaCl, 5 mM KCl) were added to the well and the reaction incubated for 1 hour at room temperature.” left out
as §2, with “Each” for “The raw data was normalized to percent inhibition using control wells defining 0% (DMSO only) and 100% (selective inhibitor) inhibition which were run on each plate. Each”

DAT = assay: Occupancy assay, ex vivo binding in brain tissue, DAT; conditions: dose 1 mg/kg, time point 3 h
From the text: (§4) The general procedure for brain tissue collection and transporter occupancy assessment is briefly described as follows. Mice were sacrificed by asphyxiation in CO2, rats by decapitation and dogs by IV injection of euthanasia solution. For mice and rats, after the brains were removed from the skull, the forebrain tissue (removal of the brainstem and cerebellum) was used for SERT, NET, and DAT occupancy assessment. In dogs, the striatum was dissected for DAT occupancy and the remaining forebrain tissue (without the striatum, brainstem, and cerebellum) was used for SERT and NET occupancy assessment. The brain tissues were frozen in chilled isopentane and stored at −80° C. until homogenization.
(§5) The brain tissues were thawed and then homogenized using a polytron homogenizer (Kinematica). Sample aliquots were frozen immediately and stored at −80° C. Protein content was measured for each sample using a Coomassie protein assay kit (Pierce).
(§6) On the day of ex vivo binding for occupancy assessment, frozen sample aliquots were thawed and needle homogenized, and 100 μg of the tissue was incubated for SERT, NET, and DAT binding under assay conditions summarized in Table 2. […] The filters were washed twice with ice-cold incubation buffer, punched into a clear plate prior to the addition of 200 ul scintillation fluid per well. Radioligand was measured using a Wallac Microbeta liquid scintillation counter.
(§7) The specific binding was calculated by subtracting the value of the non-specific binding from that of the total binding in each sample. The percent occupancy was calculated as (1−specific binding in drug treated/specific binding in vehicle treated)×100%. […] Nonlinear regression was performed using GraphPad Prism version 3.00 (GraphPad Software, San Diego, Calif.).

SERT = assay: Occupancy assay, ex vivo binding in brain tissue, SERT; conditions: dose 1 mg/kg, time point 3 h
From the text: as §4, §5
On the day of ex vivo binding for occupancy assessment, frozen sample aliquots were thawed and needle homogenized, and 100 μg of the tissue was incubated for SERT, NET, and DAT binding under assay conditions summarized in Table 2. After incubation, the reactions were terminated by the addition of ice-cold assay buffer and rapid filtration through a Brandel Cell Harvester using FPXLR-196 filters. The filters were washed twice with ice-cold incubation buffer, punched into a clear plate prior to the addition of 200 ul scintillation fluid per well. Radioligand was measured using a Wallac Microbeta liquid scintillation counter.
The specific binding was calculated by subtracting the value of the non-specific binding from that of the total binding in each sample. The percent occupancy was calculated as (1−specific binding in drug treated/specific binding in vehicle treated)×100%. For estimation of in vivo occupancy EC50 (total plasma concentration of compound producing 50% occupancy), plots of occupancy values versus plasma concentrations were fitted to a one-site binding model using nonlinear regression according to the following equation: % Occupancy=Emax*C/(EC50+C) where Emax is the maximal specific binding, C is the drug concentration, and EC50 is the total plasma concentration required for 50% binding site occupancy. Nonlinear regression was performed using GraphPad Prism version 3.00 (GraphPad Software, San Diego, Calif.).

NET = assay: Occupancy assay, ex vivo binding in brain tissue, NET; conditions: dose 1 mg/kg, time point 3 h
From the text: as §4, §5, §6, §7

Male Swiss Webster mice = assay: Mouse tail suspension assay; assay type: in vivo; conditions: mouse tail suspension study, acute administration
Experimental: Male Swiss Webster mice were housed 3-4 per cage in rooms maintained at a constant temperature (21-23° C.) and humidity (50±10%) on a 12-hour light/dark cycle. Animals had ad libitum access to water and food throughout studies. On the day of testing, they were brought into the testing room and allowed to acclimate for one hour.
To begin testing, the tail was attached to a piece of tape which ias then attached to a hook on the ceiling of a sound-attenuated chamber. Immobility was automatically recorded using the Med Associates software. Compounds were administered acutely at a fixed pretreatment interval before session.

hNET, sequence (P23975 whole entry): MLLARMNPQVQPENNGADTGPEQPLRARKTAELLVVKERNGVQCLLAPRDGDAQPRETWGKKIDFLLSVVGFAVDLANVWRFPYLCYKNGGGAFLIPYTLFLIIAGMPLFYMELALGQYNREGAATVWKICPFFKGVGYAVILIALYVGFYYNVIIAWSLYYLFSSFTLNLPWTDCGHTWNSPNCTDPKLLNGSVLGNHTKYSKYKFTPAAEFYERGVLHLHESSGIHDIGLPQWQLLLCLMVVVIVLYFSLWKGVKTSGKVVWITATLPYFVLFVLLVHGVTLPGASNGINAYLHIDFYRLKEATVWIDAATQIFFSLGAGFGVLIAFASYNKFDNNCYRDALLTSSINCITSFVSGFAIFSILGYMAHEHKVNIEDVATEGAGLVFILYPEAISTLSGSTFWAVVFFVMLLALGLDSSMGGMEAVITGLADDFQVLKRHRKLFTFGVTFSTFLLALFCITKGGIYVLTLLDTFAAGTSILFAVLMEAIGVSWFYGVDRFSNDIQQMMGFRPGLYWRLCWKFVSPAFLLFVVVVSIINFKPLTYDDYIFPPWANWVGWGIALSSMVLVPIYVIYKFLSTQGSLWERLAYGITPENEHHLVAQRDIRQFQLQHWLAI
hDAT, sequence (Q01959 whole entry): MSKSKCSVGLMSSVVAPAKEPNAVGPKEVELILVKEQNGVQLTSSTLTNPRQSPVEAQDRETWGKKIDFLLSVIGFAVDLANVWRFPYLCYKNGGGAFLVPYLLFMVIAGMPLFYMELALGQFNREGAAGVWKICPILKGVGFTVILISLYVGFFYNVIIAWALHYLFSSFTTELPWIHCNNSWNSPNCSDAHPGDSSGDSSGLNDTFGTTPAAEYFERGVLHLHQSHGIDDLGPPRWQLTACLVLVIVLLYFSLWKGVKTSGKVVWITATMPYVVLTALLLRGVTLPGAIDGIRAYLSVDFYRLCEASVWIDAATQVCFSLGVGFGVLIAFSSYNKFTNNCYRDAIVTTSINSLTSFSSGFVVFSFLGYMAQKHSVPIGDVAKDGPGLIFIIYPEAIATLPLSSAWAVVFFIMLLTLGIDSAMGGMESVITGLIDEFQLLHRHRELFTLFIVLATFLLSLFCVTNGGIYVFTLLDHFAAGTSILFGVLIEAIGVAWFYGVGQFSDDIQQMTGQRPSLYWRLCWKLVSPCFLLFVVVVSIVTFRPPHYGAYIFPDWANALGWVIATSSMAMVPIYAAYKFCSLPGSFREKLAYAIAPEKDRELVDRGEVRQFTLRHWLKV
hSERT, sequence (P31645 whole entry): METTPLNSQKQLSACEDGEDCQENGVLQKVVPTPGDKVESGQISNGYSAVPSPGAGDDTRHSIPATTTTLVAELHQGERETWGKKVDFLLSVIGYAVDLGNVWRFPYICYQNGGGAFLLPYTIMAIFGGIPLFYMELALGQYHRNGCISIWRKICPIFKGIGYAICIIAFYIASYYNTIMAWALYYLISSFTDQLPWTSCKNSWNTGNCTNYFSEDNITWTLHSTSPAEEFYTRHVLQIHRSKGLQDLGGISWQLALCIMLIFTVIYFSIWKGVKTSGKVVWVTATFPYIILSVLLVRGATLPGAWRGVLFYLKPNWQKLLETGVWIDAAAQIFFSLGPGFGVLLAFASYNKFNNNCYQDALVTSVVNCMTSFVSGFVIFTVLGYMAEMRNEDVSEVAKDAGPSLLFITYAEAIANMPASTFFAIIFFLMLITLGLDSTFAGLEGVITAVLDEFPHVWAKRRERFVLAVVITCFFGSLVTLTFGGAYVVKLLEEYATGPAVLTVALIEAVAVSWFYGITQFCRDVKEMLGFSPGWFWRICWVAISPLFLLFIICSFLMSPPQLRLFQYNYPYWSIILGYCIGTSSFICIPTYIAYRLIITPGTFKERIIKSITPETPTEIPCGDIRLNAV

| SMILES | IC50 (hDAT) | IC50 (hNET) | IC50 (hSERT) | further results |
| --- | --- | --- | --- | --- |
| COc1ccc(-c2ccc3c(c2)C(C)NCC3c2ccc(Cl)cc2)nn1 (stereo not shown) [Example 8, 4-(4-Chloro-phenyl)-7-(6-methoxy-pyridazin-3-yl)-1-methyl-1,2,3,4-tetrahydro-isoquinoline] | – | – | – | inhibition at 0.1 µM (hDAT; 100 nM, DAT IC50 with footnote *): 30%; inhibition at 0.1 µM (hNET; 100 nM, NET IC50 with footnote *): 49%; inhibition at 0.1 µM (hSERT; 100 nM, SERT IC50 with footnote *): 59% |
| FC(F)(F)c1ccc(-c2ccc3c(c2)CNCC3c2ccc(Cl)c(Cl)c2)nn1 (stereo not shown) [Example 11, 4-(3,4-dichlorophenyl)-7-(6-(trifluoromethyl)pyridazin-3-yl)-1,2,3,4-tetrahydroisoquinoline] | 80 nM | 13 nM | 10 nM | – |
| N#Cc1cccc(-c2ccc3c(c2)CNCC3c2ccc(Cl)c(Cl)c2)c1 (stereo not shown) [Example 15, 3-(4-(3,4-dichlorophenyl)-1,2,3,4-tetrahydroisoquinolin-7-yl)benzonitrile] | 213 nM | 86 nM | 14 nM | – |
| CS(=O)(=O)c1ccc(-c2ccc3c(c2)CNCC3c2ccc(Cl)c(Cl)c2)cc1 (stereo not shown) [Example 16, 4-(3,4-dichlorophenyl)-7-(4-(methylsulfonyl)phenyl)-1,2,3,4-tetrahydroisoquinoline] | 77 nM | 13 nM | 20 nM | – |
| O=c1ccccn1-c1ccc2c(c1)CNCC2c1ccc(Cl)c(Cl)c1 (stereo not shown) [Example 17, 1-(4-(3,4-dichlorophenyl)-1,2,3,4-tetrahydroisoquinolin-7-yl)pyridin-2(1H)-one] | 84.7 nM | 421 nM | 6.9 nM | – |
| O=c1cccnn1-c1ccc2c(c1)CNCC2c1ccc(Cl)c(Cl)c1 (stereo not shown) [Example 18, 2-(4-(3,4-dichlorophenyl)-1,2,3,4-tetrahydroisoquinolin-7-yl)pyridazin-3(2H)-one] | 29.9 nM | 132 nM | 6.1 nM | – |
| O=c1ccc(-c2cc3c(cc2F)C(c2ccc(Cl)c(Cl)c2)CNC3)n[nH]1 (stereo not shown) [Example 22, 6-(4-(3,4-dichlorophenyl)-6-fluoro-1,2,3,4-tetrahydroisoquinolin-7-yl)pyridazin-3(2H)-one] | 37 nM | 63 nM | 39 nM | – |
| CS(=O)(=O)c1cccc(-c2cc3c(cc2F)C(c2ccc(Cl)c(Cl)c2)CNC3)c1 (stereo not shown) [Example 23, 4-(3,4-dichlorophenyl)-6-fluoro-7-(3-(methylsulfonyl)phenyl)-1,2,3,4-tetrahydroisoquinoline] | 101 nM | 283 nM | 83.6 nM | – |
| NC(=O)c1ccc(-c2cc3c(cc2F)C(c2ccc(Cl)c(Cl)c2)CNC3)cc1 (stereo not shown) [Example 26, 4-(4-(3,4-dichlorophenyl)-6-fluoro-1,2,3,4-tetrahydroisoquinolin-7-yl)benzamide] | 5.8 nM | 23.3 nM | 24.5 nM | – |
| NC(=O)c1ccc(-c2cc3c(cc2F)C(c2ccc(Cl)cc2)CNC3)cc1 (stereo not shown) [Example 30, 4-(4-(4-chlorophenyl)-6-fluoro-1,2,3,4-tetrahydroisoquinolin-7-yl)benzamide] | 24.5 nM | 215 nM | 101 nM | – |
| Clc1ccc(C2CNCc3cc(-c4ccc5ncnn5c4)ccc32)cc1Cl (stereo not shown) [Example 36, 7-([1,2,4]triazolo[1,5-a]pyridin-6-yl)-4-(3,4-dichlorophenyl)-1,2,3,4-tetrahydroisoquinoline] | – | – | – | DAT Occupancy % (DAT): 26%; SERT Occupancy % (SERT): 75%; NET Occupancy % (NET): 11%; minimum effective dose (Male Swiss Webster mice): 10 mg/kg |

— patent publication US9034899B2, “Aryl, heteroaryl, and heterocycle substituted tetrahydroisoquinolines and use thereof” (Albany Molecular Research, Inc., priority 2009, dated 2015)
